Results published in paper PMC6141003 (Biochimie, 2017).

Assays:
[1] = biological target: T1, GLUT1 (Mus musculus, UniProt P17809); experiment: dose-dependent competition of [3H]-2DG uptake in L929 fibroblasts; type: cell-based
T1 sequence (P17809 1-492): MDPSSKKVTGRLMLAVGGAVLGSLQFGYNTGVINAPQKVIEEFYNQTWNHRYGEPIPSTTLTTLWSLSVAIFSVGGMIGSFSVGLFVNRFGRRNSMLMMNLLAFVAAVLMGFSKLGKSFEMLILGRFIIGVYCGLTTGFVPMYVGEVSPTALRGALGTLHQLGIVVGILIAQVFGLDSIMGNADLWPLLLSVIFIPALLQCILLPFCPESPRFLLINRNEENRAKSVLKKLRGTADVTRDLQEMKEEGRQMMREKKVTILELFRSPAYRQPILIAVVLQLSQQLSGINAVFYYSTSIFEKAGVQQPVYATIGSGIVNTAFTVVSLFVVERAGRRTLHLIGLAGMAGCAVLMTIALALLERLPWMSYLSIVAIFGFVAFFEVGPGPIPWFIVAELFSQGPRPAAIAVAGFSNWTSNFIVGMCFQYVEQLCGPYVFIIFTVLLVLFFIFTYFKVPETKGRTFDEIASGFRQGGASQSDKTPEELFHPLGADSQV

[2] = biological target: T1, GLUT1; experiment: [3H]-2-deoxyglucose uptake in L929 fibroblasts; type: cell-based

Row | Structure (SMILES) | dose-dependent competition of [3H]-2DG uptake in L929 fibroblasts [1] | IC50 [2] [mM]
1 | OC[C@H]1OC(O)[C@H](O)[C@@H](O)[C@@H]1O (some centres unmarked) [glucose] | glucose reduces 2DG uptake in a dose-dependent manner, and that caffeine adds to the inhibitory effects of glucose | 
2 | Cn1c(=O)c2c(ncn2C)n(C)c1=O [caffeine] |  | ~1.4
